{"source": "paper PMC6812009", "about": "“Covalent Aurora A regulation by the metabolic integrator coenzyme A” (Redox Biology, 2019)", "test_in_all_cases": "Kinase profiling screen (radioactive filter-binding assay)", "type_in_all_cases": "biochemical", "key": {"ZAP70": {"molecular_target": "T1, ZAP70 (Homo sapiens, UniProt P43403)", "T1 sequence (P43403 1-619)": "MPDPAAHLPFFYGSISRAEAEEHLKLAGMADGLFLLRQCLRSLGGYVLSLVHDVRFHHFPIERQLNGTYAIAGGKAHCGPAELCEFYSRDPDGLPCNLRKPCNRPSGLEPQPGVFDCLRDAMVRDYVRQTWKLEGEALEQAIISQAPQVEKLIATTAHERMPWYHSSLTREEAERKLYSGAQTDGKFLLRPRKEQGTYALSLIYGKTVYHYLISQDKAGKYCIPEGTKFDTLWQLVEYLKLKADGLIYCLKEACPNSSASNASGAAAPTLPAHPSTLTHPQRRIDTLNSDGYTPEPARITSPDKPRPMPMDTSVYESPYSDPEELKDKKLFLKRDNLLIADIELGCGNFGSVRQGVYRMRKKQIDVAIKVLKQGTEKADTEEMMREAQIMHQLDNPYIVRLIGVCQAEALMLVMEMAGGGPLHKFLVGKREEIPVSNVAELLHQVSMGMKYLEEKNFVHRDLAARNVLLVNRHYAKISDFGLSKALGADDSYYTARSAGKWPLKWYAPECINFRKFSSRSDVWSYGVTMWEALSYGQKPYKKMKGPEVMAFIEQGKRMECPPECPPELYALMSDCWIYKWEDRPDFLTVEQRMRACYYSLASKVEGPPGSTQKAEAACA", "conditions": "100 μM compound, 5 μM ATP; read-out: Kinase activity, % of activity in the absence of inhibitor", "procedure,_shortened": "(§1)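 Residual kinase activity is read in duplicate wells containing 100 μM final test compound (CoA, dpCoA or ADP). Recombinant kinases use model substrates at ATP levels optimal for each enzyme, across a 117-kinase screen.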"}, "PKCα": {"molecular_target": "PKCα (Homo sapiens, UniProt P17252)", "conditions": "100 μM compound, read-out: Kinase activity, % of activity in the absence of inhibitor", "procedure,_shortened": "as §1"}, "CSK": {"molecular_target": "CSK (Homo sapiens, UniProt P41240)", "sequence (P41240 whole entry)": "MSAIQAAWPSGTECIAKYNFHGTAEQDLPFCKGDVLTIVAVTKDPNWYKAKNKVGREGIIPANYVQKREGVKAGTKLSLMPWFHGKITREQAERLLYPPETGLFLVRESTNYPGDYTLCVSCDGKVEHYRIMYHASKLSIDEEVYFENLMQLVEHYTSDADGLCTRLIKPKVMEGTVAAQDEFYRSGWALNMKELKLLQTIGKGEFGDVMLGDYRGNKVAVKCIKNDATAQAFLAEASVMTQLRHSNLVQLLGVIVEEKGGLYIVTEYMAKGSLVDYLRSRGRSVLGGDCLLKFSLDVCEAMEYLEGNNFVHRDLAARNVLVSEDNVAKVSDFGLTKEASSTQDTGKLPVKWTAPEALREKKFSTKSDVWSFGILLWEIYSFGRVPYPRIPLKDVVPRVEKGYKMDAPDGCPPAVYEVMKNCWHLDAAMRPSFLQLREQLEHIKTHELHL", "conditions": "100 μM compound, 20 μM ATP; read-out: Kinase activity, % of activity in the absence of inhibitor", "procedure,_shortened": "as §1"}, "MKK1": {"molecular_target": "MKK1 (Homo sapiens, UniProt Q02750)", "sequence (Q02750 whole entry)": "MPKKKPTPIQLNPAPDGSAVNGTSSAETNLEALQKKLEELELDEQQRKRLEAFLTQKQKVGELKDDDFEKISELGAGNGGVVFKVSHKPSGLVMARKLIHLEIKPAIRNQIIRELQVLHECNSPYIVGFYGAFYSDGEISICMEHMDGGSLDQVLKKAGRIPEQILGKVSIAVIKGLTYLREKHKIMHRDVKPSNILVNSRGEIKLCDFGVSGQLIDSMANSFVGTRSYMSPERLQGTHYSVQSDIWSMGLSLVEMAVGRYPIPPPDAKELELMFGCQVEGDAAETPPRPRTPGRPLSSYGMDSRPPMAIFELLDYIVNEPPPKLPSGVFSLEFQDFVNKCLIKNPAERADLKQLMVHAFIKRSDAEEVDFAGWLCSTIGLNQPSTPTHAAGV", "conditions": "100 μM compound, 5 μM ATP; read-out: Kinase activity, % of activity in the absence of inhibitor", "procedure,_shortened": "as §1"}, "JNK3": {"molecular_target": "JNK3 (Homo sapiens, UniProt P53779)", "sequence (P53779 whole entry)": "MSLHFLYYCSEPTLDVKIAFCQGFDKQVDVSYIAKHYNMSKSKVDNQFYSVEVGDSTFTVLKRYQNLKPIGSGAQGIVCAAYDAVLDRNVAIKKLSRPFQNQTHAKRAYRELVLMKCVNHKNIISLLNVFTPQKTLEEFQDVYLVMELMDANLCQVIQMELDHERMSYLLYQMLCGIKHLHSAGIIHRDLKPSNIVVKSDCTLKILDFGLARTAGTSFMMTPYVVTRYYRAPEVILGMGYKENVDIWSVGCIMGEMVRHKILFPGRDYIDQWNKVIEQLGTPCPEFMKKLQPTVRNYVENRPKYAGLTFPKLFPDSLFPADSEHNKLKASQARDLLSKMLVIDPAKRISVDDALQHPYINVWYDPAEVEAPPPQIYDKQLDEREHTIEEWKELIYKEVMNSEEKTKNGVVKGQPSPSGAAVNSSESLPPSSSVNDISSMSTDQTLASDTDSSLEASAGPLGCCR", "conditions": "100 μM compound, 20 μM ATP; read-out: Kinase activity, % of activity in the absence of inhibitor", "procedure,_shortened": "as §1"}, "SRPK1": {"molecular_target": "SRPK1 (Homo sapiens, UniProt Q96SB4)", "sequence (Q96SB4 whole entry)": "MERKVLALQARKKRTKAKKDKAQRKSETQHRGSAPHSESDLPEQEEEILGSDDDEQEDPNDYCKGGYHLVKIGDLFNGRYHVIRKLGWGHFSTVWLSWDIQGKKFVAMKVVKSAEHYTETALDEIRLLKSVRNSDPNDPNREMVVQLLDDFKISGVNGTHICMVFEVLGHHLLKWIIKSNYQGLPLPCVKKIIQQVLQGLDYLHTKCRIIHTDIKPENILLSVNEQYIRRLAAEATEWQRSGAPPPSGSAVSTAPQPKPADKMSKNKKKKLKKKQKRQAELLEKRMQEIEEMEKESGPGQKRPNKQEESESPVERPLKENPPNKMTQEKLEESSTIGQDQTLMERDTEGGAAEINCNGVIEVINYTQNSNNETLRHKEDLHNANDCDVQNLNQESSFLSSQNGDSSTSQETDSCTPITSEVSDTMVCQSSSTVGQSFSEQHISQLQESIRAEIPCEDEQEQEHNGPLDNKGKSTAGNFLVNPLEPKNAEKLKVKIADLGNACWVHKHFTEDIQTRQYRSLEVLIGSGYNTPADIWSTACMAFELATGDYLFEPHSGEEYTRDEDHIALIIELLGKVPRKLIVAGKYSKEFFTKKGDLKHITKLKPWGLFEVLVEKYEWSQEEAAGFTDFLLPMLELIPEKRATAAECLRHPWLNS", "conditions": "100 μM compound, 50 μM ATP; read-out: Kinase activity, % of activity in the absence of inhibitor", "procedure,_shortened": "as §1"}, "PDK1": {"molecular_target": "T2, PDK1 (Homo sapiens, UniProt O15530)", "T2 sequence (O15530 1-556)": "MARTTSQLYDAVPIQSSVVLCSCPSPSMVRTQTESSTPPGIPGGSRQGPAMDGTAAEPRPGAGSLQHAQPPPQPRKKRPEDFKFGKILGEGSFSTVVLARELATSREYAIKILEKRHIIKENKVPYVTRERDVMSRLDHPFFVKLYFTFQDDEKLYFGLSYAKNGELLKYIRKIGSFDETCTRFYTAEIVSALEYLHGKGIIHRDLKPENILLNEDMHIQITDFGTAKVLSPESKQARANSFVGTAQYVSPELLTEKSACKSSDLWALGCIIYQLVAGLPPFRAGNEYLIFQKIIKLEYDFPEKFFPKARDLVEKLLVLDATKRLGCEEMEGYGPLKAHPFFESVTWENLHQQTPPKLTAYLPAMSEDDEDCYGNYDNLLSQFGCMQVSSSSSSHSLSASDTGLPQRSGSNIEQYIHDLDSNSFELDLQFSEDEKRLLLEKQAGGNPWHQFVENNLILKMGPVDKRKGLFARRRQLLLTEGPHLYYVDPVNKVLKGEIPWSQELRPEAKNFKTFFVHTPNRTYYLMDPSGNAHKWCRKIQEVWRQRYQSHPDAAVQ", "conditions": "100 μM compound, 20 μM ATP; read-out: Kinase activity, % of activity in the absence of inhibitor", "procedure,_shortened": "as §1"}, "MARK2": {"molecular_target": "MARK2 (Homo sapiens, UniProt Q7KZI7)", "sequence (Q7KZI7 whole entry)": "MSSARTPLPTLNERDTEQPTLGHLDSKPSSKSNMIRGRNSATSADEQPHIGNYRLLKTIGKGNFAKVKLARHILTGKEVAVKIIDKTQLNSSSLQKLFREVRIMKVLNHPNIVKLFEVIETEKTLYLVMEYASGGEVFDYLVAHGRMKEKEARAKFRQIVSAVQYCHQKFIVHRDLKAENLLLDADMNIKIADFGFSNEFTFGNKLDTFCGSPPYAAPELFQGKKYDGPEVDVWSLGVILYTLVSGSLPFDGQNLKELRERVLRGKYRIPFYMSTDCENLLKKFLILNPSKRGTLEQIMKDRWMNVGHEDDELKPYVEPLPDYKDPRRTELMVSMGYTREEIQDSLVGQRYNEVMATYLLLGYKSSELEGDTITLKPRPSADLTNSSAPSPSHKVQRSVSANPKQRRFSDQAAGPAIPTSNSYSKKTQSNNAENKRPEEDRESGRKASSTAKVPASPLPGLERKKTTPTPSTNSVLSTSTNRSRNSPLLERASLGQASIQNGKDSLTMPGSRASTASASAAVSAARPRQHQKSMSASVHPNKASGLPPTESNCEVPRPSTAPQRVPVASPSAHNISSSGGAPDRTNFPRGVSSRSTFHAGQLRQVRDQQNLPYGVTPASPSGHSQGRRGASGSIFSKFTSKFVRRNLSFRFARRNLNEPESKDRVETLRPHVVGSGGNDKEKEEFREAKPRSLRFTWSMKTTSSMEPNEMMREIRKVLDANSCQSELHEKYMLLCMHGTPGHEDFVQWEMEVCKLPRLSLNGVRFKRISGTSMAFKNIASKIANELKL", "conditions": "100 μM compound, 20 μM ATP; read-out: Kinase activity, % of activity in the absence of inhibitor", "procedure,_shortened": "as §1"}, "SGK1": {"molecular_target": "T3, SGK1 (Homo sapiens, UniProt O00141)", "T3 sequence (O00141 1-431)": "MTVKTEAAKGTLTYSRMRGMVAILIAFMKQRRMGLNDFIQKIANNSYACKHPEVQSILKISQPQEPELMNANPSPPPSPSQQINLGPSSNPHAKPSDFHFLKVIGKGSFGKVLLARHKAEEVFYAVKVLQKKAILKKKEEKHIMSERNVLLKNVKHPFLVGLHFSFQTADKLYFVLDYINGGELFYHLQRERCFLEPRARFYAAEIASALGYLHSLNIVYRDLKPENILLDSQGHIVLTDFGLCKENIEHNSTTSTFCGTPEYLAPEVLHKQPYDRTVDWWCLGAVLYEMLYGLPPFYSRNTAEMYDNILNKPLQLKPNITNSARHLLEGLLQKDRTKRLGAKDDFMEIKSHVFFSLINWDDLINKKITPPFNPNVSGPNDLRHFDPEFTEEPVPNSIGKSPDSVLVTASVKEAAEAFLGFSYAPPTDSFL", "conditions": "100 μM compound, 20 μM ATP; read-out: Kinase activity, % of activity in the absence of inhibitor", "procedure,_shortened": "as §1"}, "TIE2": {"molecular_target": "TIE2 (Homo sapiens, UniProt Q02763)", "sequence (Q02763 23-1124)": "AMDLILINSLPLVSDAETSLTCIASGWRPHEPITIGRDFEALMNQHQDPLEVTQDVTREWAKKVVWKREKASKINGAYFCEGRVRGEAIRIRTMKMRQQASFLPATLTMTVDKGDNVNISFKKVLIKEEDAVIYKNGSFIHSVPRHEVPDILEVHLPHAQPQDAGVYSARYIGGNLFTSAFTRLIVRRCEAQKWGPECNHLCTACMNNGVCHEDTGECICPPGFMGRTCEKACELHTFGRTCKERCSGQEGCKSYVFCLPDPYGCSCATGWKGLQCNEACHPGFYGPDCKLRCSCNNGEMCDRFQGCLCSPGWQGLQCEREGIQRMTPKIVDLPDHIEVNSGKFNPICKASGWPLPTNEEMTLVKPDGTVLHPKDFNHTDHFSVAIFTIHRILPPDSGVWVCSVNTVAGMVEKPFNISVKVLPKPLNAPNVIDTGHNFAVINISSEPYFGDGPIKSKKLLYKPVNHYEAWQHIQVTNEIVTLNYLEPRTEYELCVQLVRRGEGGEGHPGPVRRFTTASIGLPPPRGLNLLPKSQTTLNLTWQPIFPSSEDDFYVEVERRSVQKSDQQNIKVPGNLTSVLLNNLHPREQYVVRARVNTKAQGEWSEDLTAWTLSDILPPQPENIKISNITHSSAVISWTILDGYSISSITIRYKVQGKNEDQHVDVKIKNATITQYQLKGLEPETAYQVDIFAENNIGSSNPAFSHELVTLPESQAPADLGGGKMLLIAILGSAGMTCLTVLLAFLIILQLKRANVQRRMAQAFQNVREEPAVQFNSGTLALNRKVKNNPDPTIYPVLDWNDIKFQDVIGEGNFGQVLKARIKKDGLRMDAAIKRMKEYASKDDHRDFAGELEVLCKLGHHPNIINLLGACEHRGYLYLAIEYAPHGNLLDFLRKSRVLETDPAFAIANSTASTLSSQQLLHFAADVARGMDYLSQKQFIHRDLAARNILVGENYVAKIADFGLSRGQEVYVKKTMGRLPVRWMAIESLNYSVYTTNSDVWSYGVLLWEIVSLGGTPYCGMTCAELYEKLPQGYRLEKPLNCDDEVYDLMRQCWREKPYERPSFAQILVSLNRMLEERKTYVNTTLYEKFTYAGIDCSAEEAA", "conditions": "100 μM compound, 20 μM ATP; read-out: Kinase activity, % of activity in the absence of inhibitor", "procedure,_shortened": "as §1"}}, "note": "Like-named read-outs stand apart in the source and are kept apart here."}
{"smiles": "CC(C)(COP(=O)(O)OP(=O)(O)OC[C@H]1O[C@@H](n2cnc3c(N)ncnc32)[C@H](O)[C@@H]1OP(=O)(O)O)[C@@H](O)C(=O)NCCC(=O)NCCS", "note": "[CoA, Coenzyme A]", "values": [{"measurement": "activity at 100 µM", "setting": "ZAP70", "value": 89.7, "unit": "%"}, {"measurement": "activity at 100 µM", "setting": "PKCα; 5 μM ATP", "value": 104, "unit": "%"}, {"measurement": "activity at 100 µM", "setting": "PKCα; 20 μM ATP", "value": 78.1, "unit": "%"}, {"measurement": "activity at 100 µM", "setting": "CSK", "value": 92.6, "unit": "%"}, {"measurement": "activity at 100 µM", "setting": "MKK1", "value": 107, "unit": "%"}, {"measurement": "activity at 100 µM", "setting": "JNK3", "value": 101, "unit": "%"}, {"measurement": "activity at 100 µM", "setting": "SRPK1", "value": 116, "unit": "%"}, {"measurement": "activity at 100 µM", "setting": "PDK1", "value": 113, "unit": "%"}, {"measurement": "activity at 100 µM", "setting": "MARK2", "value": 93.1, "unit": "%"}, {"measurement": "activity at 100 µM", "setting": "SGK1", "value": 103, "unit": "%"}, {"measurement": "activity at 100 µM", "setting": "TIE2", "value": 93, "unit": "%"}]}
{"smiles": "CC(C)(COP(=O)(O)OP(=O)(O)OCC1OC(n2cnc3c(N)ncnc32)C(O)C1O)C(O)C(=O)NCCC(=O)NCCS", "note": "(stereo not drawn) [dpCoA, dephospho-CoA]", "values": [{"measurement": "activity at 100 µM", "setting": "ZAP70", "value": 79.8, "unit": "%"}, {"measurement": "activity at 100 µM", "setting": "PKCα; 5 μM ATP", "value": 76.8, "unit": "%"}, {"measurement": "activity at 100 µM", "setting": "PKCα; 20 μM ATP", "value": 88.9, "unit": "%"}, {"measurement": "activity at 100 µM", "setting": "CSK", "value": 54.9, "unit": "%"}, {"measurement": "activity at 100 µM", "setting": "MKK1", "value": 52.3, "unit": "%"}, {"measurement": "activity at 100 µM", "setting": "JNK3", "value": 63.2, "unit": "%"}, {"measurement": "activity at 100 µM", "setting": "SRPK1", "value": 89.1, "unit": "%"}, {"measurement": "activity at 100 µM", "setting": "PDK1", "value": 91.2, "unit": "%"}, {"measurement": "activity at 100 µM", "setting": "MARK2", "value": 81.5, "unit": "%"}, {"measurement": "activity at 100 µM", "setting": "SGK1", "value": 74.3, "unit": "%"}, {"measurement": "activity at 100 µM", "setting": "TIE2", "value": 83.4, "unit": "%"}]}
{"smiles": "Nc1ncnc2c1ncn2C1OC(COP(=O)(O)OP(=O)(O)O)C(O)C1O", "note": "(stereo not drawn) [ADP]", "values": [{"measurement": "activity at 100 µM", "setting": "ZAP70", "value": 13.2, "unit": "%"}, {"measurement": "activity at 100 µM", "setting": "PKCα; 5 μM ATP", "value": 38.6, "unit": "%"}, {"measurement": "activity at 100 µM", "setting": "PKCα; 20 μM ATP", "value": 76.5, "unit": "%"}, {"measurement": "activity at 100 µM", "setting": "CSK", "value": 18.5, "unit": "%"}, {"measurement": "activity at 100 µM", "setting": "MKK1", "value": 16.4, "unit": "%"}, {"measurement": "activity at 100 µM", "setting": "JNK3", "value": 58.6, "unit": "%"}, {"measurement": "activity at 100 µM", "setting": "SRPK1", "value": 60.9, "unit": "%"}, {"measurement": "activity at 100 µM", "setting": "PDK1", "value": 23.3, "unit": "%"}, {"measurement": "activity at 100 µM", "setting": "MARK2", "value": 25, "unit": "%"}, {"measurement": "activity at 100 µM", "setting": "SGK1", "value": 38.7, "unit": "%"}, {"measurement": "activity at 100 µM", "setting": "TIE2", "value": 33.1, "unit": "%"}]}
